From EP0292365A2, “4-Amino-5,8-quinazolindione derivatives, process for their preparation and pharmaceutical compositions containing them” (CENTRE NATIONAL DE LA RECHERCHE SCIENTIFIQUE, priority 1987, dated 1988)
Read-outs that look alike come from different tables or passages of the source.

How the values were obtained:
[1] = tested on: cellules leucémiques L 1210; assay: In vitro cytotoxicity: growth inhibition of L 1210 leukemia cells (Coulter count); assay type: cell-based, souris; settings: Mus musculus, L1210, 48 h, read-out: CI50 après 48 h de culture
Protocol: La détermination de la cytotoxicité in vitro sur les cellules leucémiques L 1210 est la méthode utilisée pour sélectionner les molécules potentiellement antitumorales. Le protocole mis en oeuvre est le suivant :
les cellules leucématiques L 1210 adaptées à la culture en suspension stationnaire sont entretenues dans du milieu RPMI 1640 (commercialisé par Seromed) additionné de 20 % de sérum de cheval décomplémenté, L-glutamine (2 mM), pénicilline (200 U/ml), streptomycine (50µg/ml) et cultivées à 37° C dans une atmosphère à 5 % de C02. Les cultures testées par la méthode de BARILE (BARILE M.F. Mycoplasmal contamination of cell culture, in Contamination in Tissue Culture, J. Fogh (ed.) Acad. Press, 132-156, 1973) sont exemptes de contaminations bactériennes et mycoplasmiques.
Pour les expérimentations, les cellules sont ensemencées à la concentration de 0,8.10^5 cellules/ml et cultivées par 2 ml dans des flacons de 15 ml. Les substances à étudier sont dissoutes dans du DMSO (1 % final) dont on a préalablement vérifié l'innocuité. Des quantités croissantes de produit à tester sont ajoutées au temps 0 et des numérations sont faites au compteur COULTER après 24 et 48 heures de culture. Des séries de contrôle sont effectuées avec des quantités de DMSO équivalentes à celles des séries traitées.
Le temps de doublement des cellules témoins est approximativement de 12 heures.
La cytotoxicité est déterminée d'après l'inhibition de croissance des cellules L 1210, calculée par rapport aux témoins correspondants selon la formule : [formula] • T = concentration de cellules non traitées, • t = concentration de cellules traitées.
La concentration de produit qui diminue la croissance cellulaire de 50 % (Clso) est calculée d'après la méthode des régressions linéaires en coordonnées log-probit.
Lorsque la Cl50 est voisine de la micromolarité (égale ou inférieure à 1 µM), il existe une présomption d'activité antitumorale et les essais in vivo indiqués ci-après sont effectués.
A titre d'exemple, la CI50 mesurée 48 heures après traitement des cellules par les composés de l'invention testés est la suivante : […]

Leucémie P388 = assay type: in vivo, souris DBA/2; settings: for survivants 30 jours / Δ P J1-J5 / T/C / Doses actives (T/C ≥ 125 %): P388; for T/C: survivants inclus; for activité antitumorale sur la leucémie P388: summary
Excerpt: Afin de tester l'activité antitumorale des composés décrits plus haut, on a utilisé les leucémies murines P388 et L1210, ainsi que le mélanome murin B16. La leucémie P388 est considère comme très sensible et permet une première sélection. D'autre part, une substance ayant une grande activité sur la leucémie L1210 a une grande chance d'être active en clinique humaine (J.M. Venditti; Relevance of transplantable animal tumor systems to the Selection of new agents for clinical trial in pharmacological basis of cancer chemotherapy. The University of Texas ed. Williams and Wilkins, publ. 1975, Baltimore USA).
Cette étude a été réalisée sur 1, 2 ou 3 tumeurs murines expérimentales selon le schéma suivant :
Les produits en solution dans l'eau ou en suspension dans du Klucel sont administrés par voie intrapéritonéale 24 heures après la greffe des cellules tumorales (10 animaux par série), soit en injection unique (J1), soit pendant 9 jours consécutifs (Ji-9). Les morts sont relevés chaque jour à la même heure. La comparaison du temps médian de survie des souris témoins (C) et des souris traitées (T) permet d'apprécier l'activité antitumorale du produit. On adopte comme critère d'activité minimale la valeur de T/C supérieure ou égale à 125 % conformément aux critères établis par GERAN et par l'O.M.S. (Réf. GERAN R.I., GREENBERG N.H., MACDONALD M.M., SCHUMACHER A.M. and ABBOTT B.J. Protocols for screening chemical agents and natural products against animal tumors and other biological systems. Cancer Chemother. Rep. Part 3, 3, 1-103 (1972)).
Lorsque le composé est actif sur plusieurs tumeurs, son administration par d'autres voies que la voie intrapéritonéale (i.p.) est envisagée : orale (p.o) et intraveineuse (i.v). Les résultats des essais effectués à l'aide du composé 63 sont rassemblés dans le tableau IV ci-après.
Les résultats des essais effectués à l'aide des composés de l'invention n° 57 et 59 sont rassemblés dans le tableau IV Bis ci-après.
Dans les tableaux IV et IV Bis, P représentent la variation de poids entre J1 et J5 des animaux traités; lorsque P est supérieure à environ 4 g, cela signifie que la dose à laquelle le composé a été testé est toxique.

[2] = greffe ip(10^6cel.), ip J1-9, dose optimale 0,4 mg/kg/inj.
[3] = greffe ip(10^6cel.), ip J1, dose 1,25 mg/kg/inj.
[4] = greffe ip(10^6cel.), ip J1, dose optimale 3 mg/kg/inj.
[5] = greffe ip(10^6cel.), iv J1, dose 1,25 mg/kg/inj. (2 doses testées)
[6] = greffe ip(10^6cel.), po J1, dose optimale 30 mg/kg/inj.
[7] = greffe iv(10^5cel.), iv J1, dose 1,25 mg/kg/inj. (1 seule dose testée)

SMILES: CN(C)CCCNc1ncnc2c1C(=O)C(N1CC1)=C(N1CC1)C2=O [composé 63]
- IC50 [1]: 2.7 nM
- survivants 30 jours (Leucémie P388; [2]): 0
- Δ P J1-J5 (Leucémie P388; [2]): -2,1 g
- T/C (Leucémie P388; [2]): 222%
- survivants 30 jours (Leucémie P388; [3]): 1
- Δ P J1-J5 (Leucémie P388; [3]): -1,7 g
- T/C (Leucémie P388; [3]): 174%
- survivants 30 jours (Leucémie P388; [4]): 0
- Δ P J1-J5 (Leucémie P388; [4]): -2,0 g
- T/C (Leucémie P388; [4]): 188%
- survivants 30 jours (Leucémie P388; [5]): 0
- Δ P J1-J5 (Leucémie P388; [5]): -0,7 g
- T/C (Leucémie P388; [5]): 136%
- survivants 30 jours (Leucémie P388; [6]): 0
- Δ P J1-J5 (Leucémie P388; [6]): -4,7 g
- T/C (Leucémie P388; [6]): 140%
- Doses actives (T/C ≥ 125 %) (Leucémie P388; greffe ip(10^6cel.), traitement ip J1): 0,1-3 mg/kg/inj.
- Doses actives (T/C ≥ 125 %) (Leucémie P388; greffe ip(10^6cel.), traitement ip J1-9): 0,017-0,8 mg/kg/inj.
- Doses actives (T/C ≥ 125 %) (Leucémie P388; greffe ip(10^6cel.), traitement po J1): 20-30 mg/kg/inj.
- survivants 30 jours (Leucémie P388; [7]): 0
- Δ P J1-J5 (Leucémie P388; [7]): -0,1 g
- T/C (Leucémie P388; [7]): 147%
- activité antitumorale sur la leucémie P388 (Leucémie P388; par voie orale et par voie intraveineuse): reste actif
- activité antitumorale sur la leucémie P388 (Leucémie P388; voie intrapéritonéale): excellente activité antitumorale
